Assay results reported in patent US6627441B1, “Increasing levels of growth regulator and/or water stress during embryo development” (priority 1998, dated 2003).

What was measured:
[1] = tested on: Norway spruce somatic embryos; assay: Norway spruce culture with raised ABA and PEG (Example 5); type: cell-based
Experimental: Norway spruce was cultured using the same protocol as developed for white spruce. Thus, somatic embryos from full hormone suspension culture were transferred to hormone-free liquid culture medium (half-strength Litvay's medium, 3% sucrose) for one week, then transferred (0.75 mL of 20% suspension) to maturation medium in petri dishes.
The first medium contained PEG adjusted to 290 mmol/kg and 20 μM ABA. After two weeks, the cultures were transferred on their filter paper supports to fresh medium of the same composition, or to medium containing PEG adjusted to 400 mmol/kg and 30 μM ABA. After a further two weeks (i e., the fourth week of culture), the somatic embryos were transferred either to PEG media at a water potential of 400 mmol/kg and 40 μM ABA, or to PEG medium of 540 mmol/kg and 40 μM ABA. Somatic embryos were also plated on medium containing 20 μM ABA and no PEG.

[2] = tested on: Douglas fir somatic embryos; assay: Douglas fir somatic embryogenesis (Example 11); type: cell-based
Experimental: Douglas fir may be cultured using sucrose at 1-3% (30-90 mM), however, other sugars may be used at the same concentrations. Maintenance cultures usually contain the sugar at about 1%. […] Douglas fir embryogenic tissue was induced from developing seed. Embryos contained in megametophytes were induced and maintained on TX maintenance medium having 1% sucrose. This medium contained 0.2 g/L glutamine and 0.2 g/L casein hydrolysate. Selected embryogenic tissue was subcultured biweekly per petri dish. Medium was solidified with 2.4 g/L PHYTAGEL™. This medium contained 9 μM 2,4-D and 4.5 μM BA. Liquid suspension cultures were maintained in flasks containing 50 mL liquid maintenance medium Liquid cultures were subcultured weekly. For maturation, the embryogenic suspension was first precultured in liquid medium without growth regulators, and subcultured weekly. The water potential of the maintenance cultures and precultures remained below 150 mmol/kg. After one or two weeks of preculture, 1 to 2 g of filtered tissue was resuspended in 10 mL fresh medium and 0.75 mL of the new suspension was pipetted onto the solid maturation medium. Maturation medium contained calcium chloride at 105 mg/L, and ammonium nitrate was included at 400 mg/L. Glutamine was used at 0.8 g/L for the first week then reduced to 0.1 g/L thereafter. Casein hydrolysate was maintained at 0.2 g/L. The sugar was increased to 2-3% and the medium was solidified with Phytagel at 2.8 to 3.4 g/L. ABA was added into the medium after filter sterilization. The maturation medium also contained PEG. The ABA and water potential were raised following the schedule in the following table.
In some instances, the PEG was reduced and the water potential made up to the desired level using lactose at 0% in the first week, 1% in week 2, 4% in weeks 3 and 4, 5% in week 5, and 6% in week 6. Although this allowed a firmer gel to set than otherwise would occur with PEG alone, it may not provide any other benefit over full PEG (see, for example, Table 8), particularly if liquid culture medium is used. […] The embryos were desiccated and stored in a freezer as described for spruce, or germinated directly without desiccation. For germination, embryos were placed on half-strength basal medium containing 0.4 g/L calcium nitrate, 0.2 g/L ammonium nitrate, no hormones and 2% sucrose and 0.6% agar. These were grown in the light.

[3] = tested on: Western larch somatic embryos; assay: Western larch somatic embryogenesis (Example 10); type: cell-based, Western larch (Larix occidentalis Nutt.)
Experimental: In order to test the effect of increased ABA and osmoticum, somatic embryos were first cultured on ½ LM full hormone proliferation medium, then transferred to hormone-free preculture medium with 3% sucrose for one week prior to plating 0.75 mL of a 20% (w/v) suspension culture onto filter paper supports overlaying solidified maturation medium. The somatic embryos were plated on PEG medium of 330 mmol/kg and 16 μM ABA, then transferred to 380 mmol/kg PEG medium, 24 ABA after 1 week, then transferred to 450 mmol/kg PEG medium, 32 μM ABA after the third week. These were then either desiccated at week 5 or were transferred to 540 mmol/kg PEG, 40 μM ABA for up to two more weeks before desiccating.

[4] = tested on: white spruce somatic embryos; assay: Liquid maturation pretreatments with ABA and PEG, number of mature embryos (Example 7); type: cell-based
Experimental: Experiments were established to determine whether increasing ABA and water stress can be applied early in maturation. Somatic embryos in liquid maintenance suspension culture were transferred to liquid culture medium containing 1/20 of the strength of hormones in the preculture medium for 7 days. Seven treatments were prepared using these cultures as outlined below.
Starting water potential was 112 mmol/kg, and all preculture media contained 1/20 strength 2,4-D and BA that were present in the proliferation medium. Following these treatments, a 20% suspension was prepared and the embryos were plated onto solidified maturation medium containing PEG adjusted to 290 mmol/kg with PEG and 20 μM ABA.
Experiments were repeated at least three times and three replicates were prepared per treatment. Cultures were transferred to fresh medium every two weeks. Alternatively, to determine if PEG/ABA liquid maturation treatments modified the optimal starting water potential, the embryos were plated from the nine treatments to medium containing ABA at 20 μM and PEG at 290 or 380 mmol/kg. Additionally, to determine if PEG/ABA liquid maturation treatments modified the optimal starting ABA concentration, the embryos were plated from the nine treatments to medium containing PEG at 337 mmol/kg and ABA at 20 or 40 μM. Cultures were transferred to fresh medium every two weeks. After six weeks, the number of embryos developing per 0.75 mL starting inoculum was recorded. It can be seen from FIG. 3 that all treatments in which PEG and ABA were added gave an improvement over the control. Previous experiments had shown that the control ( 1/20 of the hormones present in the proliferation medium) yielded almost four times the number of mature embryos compared to no pretreatment (i e., full hormone treatment), and almost three times the number of mature embryos compared to culture in hormone-free preculture medium (i e., means of 154, 41, and 58 mature embryos per replicate, respectively). […] The best treatments were those that contained additions of both PEG and ABA. […]

[5] = ABA 30 to 60 μM and water potential 294 to 814 mmol/kg over 6 weeks

CC1=CC(=O)CC(C)(C)[C@@]1(O)/C=C/C(C)=C\C(=O)O [ABA, abscisic acid]
appearance, precocious germination ([1]; 20 μM ABA, no PEG, after six weeks): green and elongated
appearance, precocious germination ([1]; 290 mmol/kg PEG medium and 20 μM ABA, after six weeks): green and some had dark green tips to their cotyledons
appearance, precocious germination ([1]; completed the 400 mmol/kg PEG, 40 μM ABA treatment, six weeks): yellow with a greenish tinge
appearance, precocious germination ([1]; completed the 540 mmol/kg PEG, 40 μM ABA treatment, six weeks): small and white with no evidence of precocious germination
germination with shoot and needle development, frequency [2, 5]: ~100%
precocious germination [2, 5]: Precocious germination was prevented
survival after transfer to soil in a greenhouse, frequency ([2]; somatic plants produced using the methods of this invention): up to 95%
production of mature embryos ([3]; ABA and a mild water stress of 3% sucrose): rarely produced mature embryos
plantlets after desiccation and germination ([3]; PEG 330 to 450 or 540 mmol/kg with ABA 16 to 32 or 40 μM, desiccated and germinated): viable somatic plantlets with root and developing needles
precocious germination ([3]; PEG 330 to 450 or 540 mmol/kg with ABA 16 to 32 or 40 μM, five to seven weeks of culture): inhibited from germinating precociously
best starting concentration of ABA in solidified maturation medium ([4]; optimal liquid treatments, PEG 337 mmol/kg, 20 or 40 μM tested, FIG. 4): 20 µM
embryos per milliliter of starting inoculum ([4]; treatment 8: PEG and ABA added in steps at days 3 and 5): over 280 embryos per milliliter
average number of mature embryos ([4]; treatment 8: PEG and ABA added in steps at days 3 and 5 of liquid culture, per 0.75 mL inoculum): about 224 mature embryos per replicate
